Drawing on patent publication US12281122B1, “PI3K inhibitors” (Cogent Biosciences, Inc., priority 2023, dated 2025), this text covers IC50 for 14 molecules.

A value given as a limit tells only on which side of the number the result lay.

The subject of experiment [1] is T47D (PI3Kα-H1047R) cell line. In words: HTRF phospho-AKT(S473) cell assay in T47D cells. In kind it is cell-based, human. The method, boiled down:
(§1)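 T47D: RPMI + 10% FBS + 0.2 units/mL insulin, top 5 μM. SKBR3: McCoy's 5A + 10% FBS, top 10 μM, 70 ng/ml PDGF-BB last 15 min. Both: 12-pt 1:3, 2 h, 37° C, max 0.5% DMSO; HTRF pAKT(S473); IC50.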
In general terms: Time-resolved FRET reads energy transfer from a long-lived donor to a nearby acceptor.

In experiment [2] the test system is SKBR3 (PI3Kα-Wild Type) cell line. Put plainly: HTRF phospho-AKT(S473) cell assay in SKBR3 cells. It counts as cell-based, human. The method, boiled down: as §1
Setting [3] is: Homo sapiens; T47D (PI3Kα-H1047R) cells, HTRF phospho-AKT(S473), 2 hours compound incubation.
The mark [4] stands for this setting: Homo sapiens, SK-BR-3; SKBR3 (PI3Kα-Wild Type) cells, HTRF phospho-AKT(S473), 2 hours compound incubation, PDGF-BB stimulated.
[5] abbreviates: Homo sapiens; HTRF phospho-AKT(S473), T47D (PI3Kα-H1047R) cells, 2 hours compound incubation.
The mark [6] stands for this setting: Homo sapiens, SK-BR-3; HTRF phospho-AKT(S473), SKBR3 (PI3Kα-Wild Type) cells, 2 hours compound incubation, PDGF-BB stimulated.

Turning to `Cc1cc([C@@H](C)Nc2ccc(Cl)nc2C(=O)NS(C)(=O)=O)c2nc(N3CCN(c4ccc(CC#N)cn4)CC3)n(C)c(=O)c2c1` [Compound 206, (R)-6-chloro-3-((1-(2-(4-(5-(cyanomethyl)pyridin-2-yl)piperazin-1-yl)-3,6-dimethyl-4-oxo-3,4-dihydroquinazolin-8-yl)ethyl)amino)-N-(methylsulfonyl) picolinamide], the IC50 (commonly the concentration at which inhibition is half-maximal) in experiment [1] (setting [3]) is less than 250 nM; in experiment [2] (setting [4]) it was 1000 to 5000 nM.
For the molecule `Cc1cc([C@@H](C)Nc2ccc(Cl)nc2C(=O)NS(C)(=O)=O)c2nc(N3C[C@H]4C[C@@H]3CN4c3ncc(F)cn3)n(C)c(=O)c2c1` [Compound 668, 6-chloro-3-(((R)-1-(2-((1R,4R)-5-(5-fluoropyrimidin-2-yl)-2,5-diazabicyclo [2.2.1]heptan-2-yl)-3,6-dimethyl-4-oxo-3,4-dihydroquinazolin-8-yl)ethyl)amino)-N-(methylsulfonyl) picolinamide], the IC50 in experiment [1] (setting [5]) was 250 to 500 nM; in experiment [2] (setting [6]), no less than 5000 nM.
Take `Cc1cc([C@@H](C)Nc2ccc(Cl)nc2C(=O)NS(C)(=O)=O)c2nc(N3C[C@@H]4[C@H](C3)[C@H]4c3nn(C)cc3F)n(C)c(=O)c2c1` [Compound 391, 6-chloro-3-(((R)-1-(2-((1R,5S,6R)-6-(4-fluoro-1-methyl-1H-pyrazol-3-yl)-3-azabicyclo[3.1.0]hexan-3-yl)-3,6-dimethyl-4-oxo-3,4-dihydroquinazolin-8-yl)ethyl)amino)-N-(methylsulfonyl) picolinamide]: the 50% inhibitory concentration (IC50) in experiment [1] (setting [3]) was in the range of 250 to 500 nM; in experiment [2] (setting [4]) it was 1000 to 5000 nM.
On to `Cc1cc([C@@H](C)Nc2ccc(Cl)nc2C(=O)NS(C)(=O)=O)c2nc(N3CCC(c4cnc(C)o4)CC3)n(C)c(=O)c2c1` [Compound 521, (R)-6-chloro-3-((1-(3,6-dimethyl-2-(4-(2-methyloxazol-5-yl)piperidin-1-yl)-4-oxo-3,4-dihydroquinazolin-8-yl)ethyl)amino)-N-(methylsulfonyl) picolinamide], for which the IC50 in experiment [1] (setting [5]) was less than 250 nM; in experiment [2] (setting [6]), 1000 to 5000 nM.
Turning to `Cc1cc([C@@H](C)Nc2ccc(Cl)nc2C(=O)NS(C)(=O)=O)c2nc(N3C[C@@H]4[C@H](C3)[C@H]4c3ccn(C)n3)n(C3CC3)c(=O)c2c1` [Compound 419, 6-chloro-3-(((R)-1-(3-cyclopropyl-6-methyl-2-((1R,5S,6R)-6-(1-methyl-1H-pyrazol-3-yl)-3-azabicyclo[3.1.0]hexan-3-yl)-4-oxo-3,4-dihydroquinazolin-8-yl)ethyl)amino)-N-(methylsulfonyl) picolinamide], the IC50 in experiment [1] (setting [3]) fell in the range of 250 to 500 nM; in experiment [2] (setting [4]), 1000 to 5000 nM.
For the molecule `Cc1cc([C@@H](C)Nc2ccc(Cl)nc2C(=O)NS(C)(=O)=O)c2nc(C3CCN(c4ccn(C)n4)CC3)n(C)c(=O)c2c1` [Compound 223, (R)-6-chloro-3-((1-(3,6-dimethyl-2-(1-(1-methyl-1H-pyrazol-3-yl)piperidin-4-yl)-4-oxo-3,4-dihydroquinazolin-8-yl)ethyl)amino)-N-(methylsulfonyl) picolinamide], the values for the IC50 in experiment [1] (setting [3]) and in experiment [2] (setting [4]) were less than 250 nM and 1000 to 5000 nM, respectively.
`Cc1cc([C@@H](C)Nc2ccc(Cl)nc2C(=O)NS(C)(=O)=O)c2nc(N3CCC(c4ccnn4C4CC4)CC3)n(C)c(=O)c2c1` [Compound 501, (R)-6-chloro-3-((1-(2-(4-(1-cyclopropyl-1H-pyrazol-5-yl)piperidin-1-yl)-3,6-dimethyl-4-oxo-3,4-dihydroquinazolin-8-yl)ethyl)amino)-N-(methylsulfonyl) picolinamide]: the IC50 in experiment [1] (setting [5]) was less than 250 nM; in experiment [2] (setting [6]), 1000 to 5000 nM.
Take `Cc1cc([C@@H](C)Nc2ccc(Cl)nc2C(=O)NS(C)(=O)=O)c2nc(N3CCC(c4nn(C(F)F)cc4F)CC3)n(C)c(=O)c2c1` [Compound 463, (R)-6-chloro-3-((1-(2-(4-(1-(difluoromethyl)-4-fluoro-1H-pyrazol-3-yl)piperidin-1-yl)-3,6-dimethyl-4-oxo-3,4-dihydroquinazolin-8-yl)ethyl)amino)-N-(methylsulfonyl) picolinamide]: the IC50 in experiment [1] (setting [5]) was 250 to 500 nM; in experiment [2] (setting [6]), no less than 5000 nM.
Take `Cc1cnc(O[C@@H]2CCN(c3nc4c([C@@H](C)Nc5ccc(Cl)nc5C(=O)NS(C)(=O)=O)cc(C)cc4c(=O)n3C)C2)nc1` [Compound 613, 6-chloro-3-(((R)-1-(3,6-dimethyl-2-((R)-3-((5-methylpyrimidin-2-yl)oxy)pyrrolidin-1-yl)-4-oxo-3,4-dihydroquinazolin-8-yl)ethyl)amino)-N-(methylsulfonyl) picolinamide]: the IC50 was less than 250 nM in experiment [1] (setting [5]) and 1000 to 5000 nM in experiment [2] (setting [6]).
Take `COc1cc([C@H]2[C@@H]3CN(c4nc5c([C@@H](C)Nc6ccc(Cl)nc6C(=O)NS(C)(=O)=O)cc(C)cc5c(=O)n4C)C[C@@H]32)n(C)n1` [Compound 519, 6-chloro-3-(((R)-1-(2-((1R,5S,6R)-6-(3-methoxy-1-methyl-1H-pyrazol-5-yl)-3-azabicyclo[3.1.0]hexan-3-yl)-3,6-dimethyl-4-oxo-3,4-dihydroquinazolin-8-yl)ethyl)amino)-N-(methylsulfonyl) picolinamide]: the values for the IC50 in experiment [1] (setting [5]) and in experiment [2] (setting [6]) were less than 250 nM and 1000 to 5000 nM, respectively.
Consider `Cc1cc([C@@H](C)Nc2ccc(Cl)nc2C(=O)NS(C)(=O)=O)c2nc(N3CCC[C@@H](c4ccnn4C(F)F)C3)n(C)c(=O)c2c1` (relative stereo) [Compound 771, 6-chloro-3-(((R)-1-(2-((R*)-3-(1-(difluoromethyl)-1H-pyrazol-5-yl)piperidin-1-yl)-3,6-dimethyl-4-oxo-3,4-dihydroquinazolin-8-yl)ethyl)amino)-N-(methylsulfonyl) picolinamide], for which the IC50 in experiment [1] (setting [5]) is 250 to 500 nM; in experiment [2] (setting [6]), no less than 5000 nM.
As for `Cc1cc([C@@H](C)Nc2ccc(Cl)nc2C(=O)NS(C)(=O)=O)c2nc(N3CC[C@@H](Oc4cncnc4)C3)n(C)c(=O)c2c1` [Compound 707, 6-chloro-3-(((R)-1-(3,6-dimethyl-4-oxo-2-((R)-3-(pyrimidin-5-yloxy)pyrrolidin-1-yl)-3,4-dihydroquinazolin-8-yl)ethyl)amino)-N-(methylsulfonyl) picolinamide], the half-maximal inhibitory concentration (IC50) in experiment [1] (setting [5]) lay in the range of 250 to 500 nM; in experiment [2] (setting [6]), 1000 to 5000 nM.
For `Cc1cc([C@@H](C)Nc2ccc(Cl)nc2C(=O)NS(C)(=O)=O)c2nc(N3C[C@@H]4[C@H](C3)[C@H]4c3cnc(C)nc3)n(C)c(=O)c2c1` [Compound 405, 6-chloro-3-(((R)-1-(3,6-dimethyl-2-((1R,5S,6S)-6-(2-methylpyrimidin-5-yl)-3-azabicyclo[3.1.0]hexan-3-yl)-4-oxo-3,4-dihydroquinazolin-8-yl)ethyl)amino)-N-(methylsulfonyl) picolinamide], the values for the IC50 in experiment [1] (setting [3]) and in experiment [2] (setting [4]) were less than 250 nM and 1000 to 5000 nM, respectively.
For `Cc1cc([C@@H](C)Nc2ccc(Cl)nc2C(=O)NS(C)(=O)=O)c2nc(N3C[C@@H]4[C@H](C3)[C@H]4c3cc4cccnn4n3)n(C)c(=O)c2c1` [Compound 620, 6-chloro-3-(((R)-1-(3,6-dimethyl-4-oxo-2-((1R,5S,6R)-6-(pyrazolo[1,5-b]pyridazin-2-yl)-3-azabicyclo[3.1.0]hexan-3-yl)-3,4-dihydroquinazolin-8-yl)ethyl)amino)-N-(methylsulfonyl) picolinamide], the results for the IC50 in experiment [1] (setting [5]) and in experiment [2] (setting [6]) were less than 250 nM and 1000 to 5000 nM, respectively.
